Assay results as given in patent publication US5258371A, “Method to reduce connective tissue destruction” (Kuraray Co., Ltd., priority 1992, dated 1993).

Legend:
[1] = target: T1, collagenase (Oryctolagus cuniculus, UniProt P13943); assay: Collagenase inhibition test (in vitro), decomposition of FITC-labelled collagen; assay type: biochemical, Japanese white rabbit; conditions: for IC50: collagenase from IL-1-stimulated rabbit chondrocyte culture supernatant, trypsin-activated, 35° C., 5% DMSO, read-out: Concentration of Drug Showing 50% Inhibition, IC50; for anti-collagenase activity (in words): refers to Test Example; for collagenase inhibition activity as a multiple of that of DMAT: relative to DMAT (control), from Table 1
T1 construct: endogenous in cells; host or cells: primary knee articular chondrocytes of Japanese white rabbit, stimulated with human recombinant interleukin-1 ('Interleukin-1a' in the source); culture supernatant
T1 sequence (P13943 99-468): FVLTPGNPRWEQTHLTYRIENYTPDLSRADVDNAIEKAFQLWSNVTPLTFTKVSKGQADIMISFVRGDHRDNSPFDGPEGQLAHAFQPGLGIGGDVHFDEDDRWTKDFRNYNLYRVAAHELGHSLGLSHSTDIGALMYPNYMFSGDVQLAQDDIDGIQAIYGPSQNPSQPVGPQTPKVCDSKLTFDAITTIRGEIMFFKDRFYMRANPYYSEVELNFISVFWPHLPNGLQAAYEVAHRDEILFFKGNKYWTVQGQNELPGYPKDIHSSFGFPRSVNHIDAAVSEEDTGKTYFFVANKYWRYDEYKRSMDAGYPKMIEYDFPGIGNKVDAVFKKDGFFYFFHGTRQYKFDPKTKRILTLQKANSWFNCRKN
Experimental: The tetracycline derivatives used in the present invention were tested for collagenase inhibition (in vitro), and for suppression of destruction of articular cartilage using rabbit osteoarthritis models (in vivo).
The knee articular cartilage of a Japanese white rabbit (4 weeks old) was aseptically taken out. The cartilage cells (chondrocytes) were separated according to the method of S. Collier et al [Ann. Rheum. […] In 30 ml of Ham's F12 culture medium (containing 10% fetal bovine serum) 4×10^6 cartilage cells were suspended and the medium was incubated at 37° C. in a 150 cm^2 incubation flask (made by Iwaki Glass Co., Japan) and under an air atmosphere containing 5% carbon dioxide. The medium was replaced every 3 to 4 days. When the cells propagated to the state of confluence (7 to 9 days after the start of incubation), the medium was replaced by Ham's F12 serum-free culture medium (30 units/ml of human recombinant Interleukin-1a made by Genzyme Co., USA) and 0.4% lactalbumin hydrolysate (made by Sigma Co., USA) and incubation was conducted for 4 days. The culture supernatant was taken and used as the collagenase solution to be tested.
The collagenase activity was expressed based on the decomposition of 1 μg of collagen at 35° C. in 1 minute being equal to 1 unit.
A solution of a drug to be tested was dissolved in dimethyl sulfoxide (DMSO), then was added to the collagenase assay solution. The final concentration of DMSO is 5%. The inhibition ratio of the drug was calculated based on the collagen decomposition activity without its addition being 100%.

[2] = tested on: articular cartilage in rabbit osteoarthritis models; assay: Test for suppression of destruction of articular cartilage using rabbit osteoarthritis models (partial lateral meniscectomy); assay type: in vivo, New Zealand white rabbit
Experimental: The tetracycline derivatives used in the present invention were tested for collagenase inhibition (in vitro), and for suppression of destruction of articular cartilage using rabbit osteoarthritis models (in vivo). The tetracycline derivatives tested were the mixture of DODMAT-2 and DODMAT-3 obtained in Synthesis Example 1 (hereinafter this mixture is referred to as "DODMAT mixture" and DOTC (mixture of isomers) obtained in Synthesis Example 2. DMAT was used as control.
The rabbit osteoarthritis models were made by the partial lateral meniscectomy procedure according to the method of C. Colombo et al [Arthritis Rheum., 26, 875 (1983)]. Adult male New Zealand white rabbits weighing approximately 3 kg each were used. The animals were anesthetized by intramuscular injection of 40 mg/kg Ketamine and 1.6 mg/kg Xylazine before surgery. The surgery was conducted as follows; the right knee was opened laterally, the fibular collateral ligament was exposed and 3-4 mm were removed. Subsequently, 3-4 mm of the sesamoid ligament were removed, followed by removal of 4-5 mm of the anterior lateral area of the exposed meniscus. The capsule and skin were then sutured. Following surgery, each animal daily received intramuscular injection of 2 mg/kg/day Dibekacin sulfate for a week to be protected from infection. The animals were sustained on standard rabbit pellets and tap water ad libitum during experiment.
The test drug (DODMAT mixture) or vehicle began 1 week post-surgery and continued every 7 days per week for 5 weeks. DODMAT, suspended in a vehicle aqueous solution containing 1% methyl cellulose, 0.8% sodium chloride, and 0.1% polysorbate 80, was administered orally by gavage. […] The histologic slides were coded and evaluated blind for 11 parameters, which are set forth in Table 2, using a scoring system of +1 to +4 for each type of abnormality as described by C. […] The data were analyzed by the one-sided Wilcoxon rank sum method.

[3] = tested on: bone resorption; conditions: J. Dent. Res., 66, 1310 (1987) and others; cited from earlier work
[4] = compared to tetracyclines; cited from earlier work
[5] = tested on: collagenase; conditions: J. Dent. Res., 66, 1310 (1987) and others; cited from earlier work
[6] = tested on: collagenase; conditions: periodontal diseases; J. Periodontal Res., 18, 516 (1983); cited from earlier work
[7] = tested on: rheumatoid arthritis; conditions: rheumatoid arthritis patients; J. Rheumatol., 17, 43 (1990); cited from earlier work

With “4-dedimethylamino-12a-deoxytetracycline [DODMAT mixture]” the IC50 [1] was 2.5 µM, the “anti-collagenase activity (in words)” value [1] was “excellent anti-collagenase activity” and the “collagenase inhibition activity as a multiple of that of DMAT” value [1] was “at least 10 times”. For the same compound, the “Mean score of cartilage lesions ± S.E.” value ([2]; 15 mg/kg/day orally by gavage, 5 weeks from 1 week post-surgery, 9 animals, p < 0.05 (one-sided Wilcoxon rank sum), vehicle 46.6 ± 7.3 (7 animals)) was 24.7 ± 3.3, the “improvement resulting from treatment” value ([2]; cartilage lesion score versus vehicle, 15 mg/kg/day oral) was “at least 47%” and the “suppression of destruction of articular cartilages (in words)” value ([2]; rabbit osteoarthritis models) was “significant suppression of destruction of articular cartilages”.
For 12a-deoxytetracycline [DOTC], the IC50 [1] was 22 µM, the “anti-collagenase activity (in words)” value [1] was “excellent anti-collagenase activity” and the “collagenase inhibition activity as a multiple of that of DMAT” value [1] was “at least 10 times”.
In the case of `C[C@@]1(O)c2cccc(O)c2C(=O)C2=C(O)[C@]3(O)C(=O)C(C(N)=O)=C(O)CC3CC21` (stereo partly drawn) [DMAT, 4-dedimethylaminotetracycline], the IC50 [1] is given as 300 µM, the “suppression of bone resorption compared to tetracyclines (in words)” value [3] is given as “compares favorably to tetracyclines with respect to collagenase inhibition, suppression of bone resorption” and the “antibacterial activity (in words)” value [4] is given as “without the same antibacterial activity”. The “collagenase inhibition compared to tetracyclines (in words)” value [5] was “compares favorably to tetracyclines with respect to collagenase inhibition”.
For `CN(C)c1ccc(O)c2c1C[C@H]1C[C@H]3[C@H](N(C)C)C(O)=C(C(N)=O)C(=O)[C@@]3(O)C(O)=C1C2=O` [minocycline], the “anti-collagenolytic activity (in words)” value [6] is given as “anti-collagenolytic activity” and the “time after start of administration at which appreciable effects were observed” value [7] is given as 4 months.
